Read-outs that look alike come from different tables or passages of the source.
Columns and labels:
skin papillomas = assay: DMBA/TPA-induced skin papillomas in FVB mice; assay type: in vivo
Source text: This initiation-promotion protocol leads to papillomas by wk 10, and in a fraction of the mice to SCC by wk 20. […] Criteria similar to those used for human papilloma classification were applied to assess disease progression: hyperplasia→papilloma (Pap 1-3)→microinvasive SCC (M1-3)→invasive SCC. On wk 20, the study was terminated.

β-catenin signaling = assay: β-catenin transcriptional activity (TOPflash) in HEK293T cells; assay type: cell-based; settings: 5 μM each; control 1.23±0.11
[1] = system: A549 human non-small lung cancer cells; assay: Orthotopic A549 lung tumor model in nude mice; assay type: in vivo; settings: 200 mg/kg once a week for 8 weeks
U87 cells = assay: 24-h growth inhibition of U87 glioblastoma cells; assay type: cell-based; settings: Homo sapiens, U-87 MG; U87, 24 h
Protocol: U87 cells were treated with sulindac and ibuprofen as well as with the compounds. U87 is a human primary glioblastoma cell line, formally known as U-87 MG. This cell line has epithelial morphology, and is one of the most frequently used glioblastoma cell lines.

A549 cells [2] = assay: Cell proliferation by BrdU staining; assay type: cell-based, human; settings: 60 μM (indomethacin equimolar)
SW480 cells = assay: Cell cycle by PI staining; assay type: cell-based, human; settings: 1×IC50 PTI; indomethacin at equimolar concentration; control 56.8
SW480 colon cancer cells = assay: SW480 colon cancer xenografts, prevention protocol, PTI; assay type: in vivo, mice; settings: oral gavage; PTI 10 mg/kg/d, indomethacin 2 mg/kg/d; end of study
PGE2 production = PGE2 production by A549 cells; assay type: cell-based, human
[3] = mouse, in vivo, ip
[4] = assay type: in vivo, mice; settings: 55° C. hot plate, 30 min after single i.p. dose; 100 mg/kg, PI-PEG 1,600 mg/kg; control 1.91 ± 0.46
A431 skin cancer cells = assay: Cellular uptake in A431 cells (HPLC); settings: 100 μM for 1 h
MDA-MB-231 = assay: Cell viability (MTT), MDA-MB-231; assay type: cell-based; settings: Homo sapiens, MDA-MB-231, 72 h
HT29 = assay: Cell viability (MTT), HT29; assay type: cell-based; settings: Homo sapiens, HT-29; HT29, 72 h
A549 cells [5] = assay: Apoptosis by annexin V and PI staining; assay type: cell-based, human; settings: 72 h, control 7.5%
Protocol: After the A549 cells were treated with the test drug in 6-well plates for 72 h, all cell populations (suspended and attached) were collected and stained with annexin V-FITC and propidium iodide (PI) (Invitrogen, Carlsbad, Calif.) for 15 min. Annexin V-FITC and PI fluorescence intensities were analyzed by flow cytometry with a FACScalibur. Annexin V(+)/PI(−) cells are early apoptotic cells; annexin V(+)/PI(+) cells are late apoptotic cells; and annexin V(−)/PI(+) cells are necrotic cells.

A549 cells [6] = assay: Cellular uptake of PTI and indomethacin; assay type: in vitro ADME, human
Protocol: A549 cells were seeded in […] plates and allowed to grow as a monolayer. […] The incubation was terminated by washing the cell monolayer with complete medium and PBS. The cells were harvested by scraping, extracted by two-fold volume of acetonitrile and centrifuged at 13,000 rpm for 5 min. Drug levels were determined by HPLC.

[7] = Cardiotoxicity, heart tissue histology; assay type: in vivo, mice; settings: treated for 1.5 months, H&E
Source text: Heart tissue sections from mice treated with PTI for 1.5 months were examined and scored histologically, following H&E staining and light microscopy for tissue damage and for the presence of inflammatory cells.

[8] = system: A549 human non-small cell lung cancer xenografts; assay: A549 lung cancer xenografts, treatment protocol, PTI; assay type: in vivo, mice; settings: 2 weeks, vs control
Protocol: Lung cancer treatment protocol: A549 cells (1.5×106) suspended in 100 μl of PBS (25% Hydrogel) were injected subcutaneously into both the left and right flanks of 5-6-week old female NOD SCID mice (Taconic Farms, Germantown, N.Y.). When the average tumor volume reached 100 mm3, the mice were divided into 3 groups: vehicle, PTI 10 mg/kg/d, and PTI 15 mg/kg/d (n=10/group); treatment lasted 2 weeks. At the end of the treatment, animals were euthanized and the xenografts were harvested.

A549 xenografts = assay: Immunohistochemistry of A549 xenografts (PCNA, TUNEL); assay type: in vivo, mice
Protocol: (§1) Staining for PCNA and p-p65 (Ser276) was performed as described. Apoptosis was determined immunohistochemically by the terminal deoxynucleotidyl transferase-mediated deoxyuridine triphosphate-biotin nick end-labeling (TUNEL) assay.

p65 subunit of NF-κB = assay: NF-κB activation in A549 xenografts (p-p65 Ser276); assay type: in vivo, mice; settings: vs controls
Protocol: as §1
To further explore the mechanism of action of PTI, we investigated the activation of NF-κB in the A549 lung tumor xenografts from the control and PTI-treated groups, by determining Ser276 phosphorylation of the p65 subunit of NF-κB. A shown in FIG. 28, compared to controls, PTI decreased the levels of p-p65 Ser276 in tumor xenografts by 90.0% (p=0.004).

COX-1 = target: T1, COX-1 (Ovis aries, UniProt P05979); assay: COX fluorescent inhibitor screening assay, COX-1; assay type: biochemical
T1 construct: purchased Cayman Chemical Co

COX-2 = COX-2 (Homo sapiens, UniProt P35354); assay: COX fluorescent inhibitor screening assay, COX-2; assay type: biochemical
[9] = Gastrointestinal toxicity in rats
[10] = system: Salmonella typhimurium (TA98 and TA100); assay: Salmonella plate incorporation mutagenicity assay; settings: 1.5 to 5000 μg/plate, with or without rat liver S9
liver esterases = assay: Stability of PTI to purified porcine liver esterases; settings: pig, half-life
porcine liver esterases = assay: as above; settings: 4 IU/ml porcine liver esterase, 20 min
[11] = Stability of PTI in complete media containing 10% serum; settings: after 24 h
[12] = Pharmacokinetics of PTI and indomethacin, single i.p. dose
U87 glioblastoma cells = assay: Apoptosis (annexin V), PV and PGIA; assay type: cell-based, human; settings: 24 h; PGIA 200 μM, PV 40 μM, alone or together
Protocol: Apoptosis: Cells (1.0×10^5 cells/well) were treated with or without PV, PGIA or valproic acid (VPA) for 24 or 48 h. After treatment, cells were trypsinized, stained with Annexin V-FITC (100× dilution, Invitrogen) and propidium iodide (PI) 0.5 μg/ml and the fluorescence intensity was analyzed by FACScaliber.

[13] = Pharmacokinetic study of phosphosulindac amide and sulindac, single oral dose; assay type: in vivo, mice; settings: mouse, plasma, label = analyte
[14] = Pharmacokinetics after inhalational administration of PS; assay type: in vivo, mice; settings: after 8 min inhalation, label = analyte
[15] = 66 mg/kg, single oral dose of sulindac equimolar to PSA, read-out: AUC0-24 h, sulindac administration
[16] = BALB/c nude, mouse, inhaled or intranasal, plasma

Chain of COX-2 (P35354 18-604): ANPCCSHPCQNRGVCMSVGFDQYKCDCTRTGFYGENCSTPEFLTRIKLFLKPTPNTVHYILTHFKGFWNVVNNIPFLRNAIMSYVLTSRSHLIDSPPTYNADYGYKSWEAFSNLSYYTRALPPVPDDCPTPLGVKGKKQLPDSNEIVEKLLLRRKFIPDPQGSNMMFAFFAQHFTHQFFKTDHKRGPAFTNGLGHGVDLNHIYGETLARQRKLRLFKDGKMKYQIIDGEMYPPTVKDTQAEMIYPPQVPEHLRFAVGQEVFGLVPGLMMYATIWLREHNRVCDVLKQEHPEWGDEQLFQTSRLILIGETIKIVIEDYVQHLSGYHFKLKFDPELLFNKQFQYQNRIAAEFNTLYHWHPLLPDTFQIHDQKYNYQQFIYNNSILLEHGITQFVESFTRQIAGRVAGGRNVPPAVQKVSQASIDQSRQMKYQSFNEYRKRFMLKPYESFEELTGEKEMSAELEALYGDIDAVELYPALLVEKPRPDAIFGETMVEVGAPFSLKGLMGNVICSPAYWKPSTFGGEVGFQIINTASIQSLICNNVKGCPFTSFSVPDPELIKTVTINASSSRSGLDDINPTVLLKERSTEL
T1 sequence (P05979 25-600): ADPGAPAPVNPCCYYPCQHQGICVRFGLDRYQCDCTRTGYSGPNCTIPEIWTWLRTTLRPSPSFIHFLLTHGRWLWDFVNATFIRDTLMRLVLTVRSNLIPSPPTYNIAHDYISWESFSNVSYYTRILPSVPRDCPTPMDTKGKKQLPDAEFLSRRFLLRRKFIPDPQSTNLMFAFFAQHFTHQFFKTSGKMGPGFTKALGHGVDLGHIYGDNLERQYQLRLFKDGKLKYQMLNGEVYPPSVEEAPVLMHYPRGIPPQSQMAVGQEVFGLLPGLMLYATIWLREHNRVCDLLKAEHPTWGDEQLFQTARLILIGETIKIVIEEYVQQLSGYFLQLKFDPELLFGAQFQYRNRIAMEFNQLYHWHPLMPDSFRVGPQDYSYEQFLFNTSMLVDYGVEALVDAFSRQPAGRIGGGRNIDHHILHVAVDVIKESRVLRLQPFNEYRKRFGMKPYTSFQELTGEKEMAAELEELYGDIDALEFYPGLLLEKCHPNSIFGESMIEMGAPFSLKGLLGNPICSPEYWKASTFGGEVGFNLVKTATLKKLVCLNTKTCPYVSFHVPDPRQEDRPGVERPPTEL

SMILES: NCCC[C@](N)(C(=O)O)C(F)F [DFMO, α-difluoromethylornithine, reference compound]
- papilloma multiplicity, oral administration (skin papillomas; oral): failed to reduce papilloma multiplicity
- reduction of tumor burden (average tumor volume/mouse) (skin papillomas; topical): ~90%
- thickness of the epidermis (skin papillomas; topical): partial effect
- reduction of tumor number (papillomas/mouse) (skin papillomas; topical application): merely stabilized disease progression
- luciferase/renilla activity (β-catenin signaling): 1.18±0.01

SMILES: CC(C)Cc1ccc(C(C)C(=O)O)cc1 (stereo not drawn) [Ibuprofen, reference compound]
- reduction based on lung tumor weight / lung weight [1]: 19%
- reduction of lung cancer based on fluorescence [1]: 57%
- IC50 (U87 cells): ≥ 1000 µM

SMILES: COc1ccc2c(c1)c(CC(=O)O)c(C)n2C(=O)c1ccc(Cl)cc1 [Indomethacin, indomethacin, reference compound]
- decrease of proportion of BrdU positive cells (A549 cells [2]): 15%
- proportion of cells in G0/G1 phase (SW480 cells): 57.7%
- reduction of tumor growth (SW480 colon cancer cells): no significant effect
- PGE2 levels induced by the calcium ionophore A23187 (PGE2 production): prevented the increase in PGE2 levels
- AUC0-24 h (for PTI: PTI plus its metabolite) [3]: 500 µM·h
- peak plasma level [3]: 127 µM
- time of peak plasma level [3]: 1 h

SMILES: CCOP(=O)(OCC)OCCCCOC(=O)C(C)c1ccc(CC(C)C)cc1 (stereo not drawn) [PI 132]
- latency values (mean±SD) [4]: 8.53 ± 0.81 s
- IC50 (U87 cells): 98 µM
- fold increase of cellular level over the other two compounds (A431 skin cancer cells): at least 300 fold
- cellular content (cellular extract) (A431 skin cancer cells; limit of detection 2.5 pmol): 750 pmol

SMILES: CCOP(=O)(OCC)OCCc1ccc(OC(=O)Cc2c(C)n(C(=O)c3ccc(Cl)cc3)c3ccc(OC)cc23)cc1 [PTI, [1-(4-Chloro-benzoyl)-5-methoxy-2-methyl-1H-indol-3-yl]-acetic acid 4-[2-(diethoxy-phosphoryloxy)-ethyl]-phenyl ester]
- IC50 (MDA-MB-231): 23 µM
- IC50 (HT29): 87 µM
- decrease of proportion of BrdU positive cells (A549 cells [2]): 96%
- proportion of cells in G0/G1 phase (SW480 cells): 69.7%
- annexin V+ cells (A549 cells [5]; 1.5×IC50): 12.3%
- annexin V+ cells (A549 cells [5]; 2×IC50): 71.4%
- cellular uptake, fold greater than indomethacin (A549 cells [6]; 6 h incubation, 50 to 200 μM): about 200 fold
- cellular uptake, fold greater than indomethacin (A549 cells [6]; 16 h): about 230 fold
- cardiotoxicity [7]: No differences in cardiotoxicity
- reduction of tumor volume ([8]; 10 mg/kg/d): 68%
- reduction of tumor volume ([8]; 15 mg/kg/d): 91%
- reduction of tumor growth (SW480 colon cancer cells): 69%
- cell proliferation (PCNA) (A549 xenografts; PTI-treated tumors, controls 59.7±7.5%): 40.2±4.5%
- apoptosis index (TUNEL) (A549 xenografts; control 3.3±0.3%): 5.8±1.2%
- increase of apoptosis index (A549 xenografts; vs control): 75.8%
- decrease of p-p65 Ser276 levels in tumor xenografts (p65 subunit of NF-κB): 90.0%
- IC50 (COX-1): 905 µM
- selectivity for COX-2 over COX-1 (COX-2): 12.6 fold
- IC50 (COX-2; purified COX-2): 71.7 µM
- PGE2 levels induced by the calcium ionophore A23187 (PGE2 production): prevented the increase in PGE2 levels
- reduction in gastrointestinal toxicity ([9]; PTI vs indomethacin): 60%
- rats that developed ulcers ([9]; gavage 4 days, indomethacin 4.75 mg/kg/day, PTI 10 mg/kg/day): 40%
- genotoxicity (reverse mutations) [10]: no significant genotoxicity
- half-life (liver esterases; 2 IU/ml esterase): 5 min
- half-life (liver esterases; 4 IU/ml esterase): 2 min
- intact PTI remaining (porcine liver esterases): approximately 20%
- hydrolyzed [11]: 40%
- Cmax ([12]; mouse, in vivo, ip, 100 mg/kg): 46 µM
- plasma detectability of PTI ([12]; single i.p. 100 mg/kg PTI): undetectable at 4 h
- time of maximum concentration of PTI ([12]; single i.p. 100 mg/kg PTI): 2 h

SMILES: CCCC(CCC)C(=O)OCCCCOP(=O)(OCC)OCC [PV]
- fold-increase of annexinV (+) cells (U87 glioblastoma cells): 3.0 fold

SMILES: CSc1ccc(/C=C2/C(C)=C(CC(=O)O)c3cc(F)ccc32)cc1 [Sulindac sulfide 146, sulindac sulfide]
- AUC(0-t) [13, 15]: 691 µM·h
- AUC(0-t) ([13]; single oral dose 100 mg/kg PSA, read-out: AUC0-24 h, PSA administration): 17.9 µM·h
- AUC [14, 16]: 66.9 µM·h
- Tmax ([14]; lung): 4 h
- Tmax ([14]; plasma): 4 h

SMILES: CC1=C(CC(=O)O)c2cc(F)ccc2/C1=C\c1ccc(S(C)(=O)=O)cc1 [Sulindac sulfone 147, sulindac sulfone]
- AUC(0-t) [13, 15]: 93.4 µM·h
- Tmax ([14]; BALB/c nude, mouse, inhaled or intranasal, lung, read-out: Tmax): 8 h
- AUC [14, 16]: 142 µM·h
- Cmax [14, 16]: 10.4 µM
- Tmax ([14]; BALB/c nude, mouse, inhaled or intranasal, plasma, read-out: Tmax): 8 h

SMILES: CC1=C(CC(=O)O)c2cc(F)ccc2/C1=C\c1ccc([S+](C)[O-])cc1 (stereo not drawn) [Sulindac]
- AUC(0-t) [13, 15]: 385 µM·h
- AUC [14, 16]: 49.5 µM·h
- IC50 (U87 cells): ≥ 1000 µM

Source: patent US20130225529A1, “PHOSPHO-ESTER DERIVATIVES AND USES THEREOF” (priority 2012, published 2013)
